{
  "source": "paper PMC7785020",
  "about": "“A unique hormonal recognition feature of the human glucagon-like peptide-2 receptor” (Cell Research, 2020)",
  "design_in_all_cases": "WT (1–553); expressed in transfected cells",
  "key": {"[1]": {"biological_target": "T1, GLP-2R R242^ECL1A (Homo sapiens, UniProt O95838, R242A)", "T1 sequence (O95838 1-553 R242A)": "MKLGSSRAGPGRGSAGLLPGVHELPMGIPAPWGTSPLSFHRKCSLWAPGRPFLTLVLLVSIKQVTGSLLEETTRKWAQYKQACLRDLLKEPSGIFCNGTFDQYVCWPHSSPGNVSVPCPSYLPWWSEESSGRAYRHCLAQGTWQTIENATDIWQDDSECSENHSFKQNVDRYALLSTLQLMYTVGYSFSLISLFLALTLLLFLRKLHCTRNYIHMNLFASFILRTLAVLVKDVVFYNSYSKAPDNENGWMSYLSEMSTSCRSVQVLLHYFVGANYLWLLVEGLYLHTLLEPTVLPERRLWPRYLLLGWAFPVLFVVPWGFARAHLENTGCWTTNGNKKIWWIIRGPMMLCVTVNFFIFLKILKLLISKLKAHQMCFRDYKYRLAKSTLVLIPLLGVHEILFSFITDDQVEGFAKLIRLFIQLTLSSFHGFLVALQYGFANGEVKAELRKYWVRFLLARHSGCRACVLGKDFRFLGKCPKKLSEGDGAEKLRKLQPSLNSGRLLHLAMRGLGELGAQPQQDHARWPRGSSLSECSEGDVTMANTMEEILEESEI", "assay": "radioligand competition binding, R242^ECL1A", "conditions": "COS-7, R242^ECL1A; [^125I]GLP-2(1–33, M10Y) 10–15 pM, 4 h, 4 °C; mean ± SEM, n ≥ 3 in duplicate", "method": "(§1) A stepwise oxidation reaction was performed by addition of 6 aliquots of 5 µL ChloramineT (30 µL/mL) with a 1-min interval during constant stirring. The reaction was terminated by the addition of 400 µL phase A (0.1% trifluoracetic acid) before being fractionated into 1 mL volume by reverse-phase high-performance liquid chromatography (RP-HPLC, Waters 600 SimiPrep system) on a C18 column. The iodinated protein was […] by increasing concentrations of phase B (Acetonitrile + 0.1% TFA) and tested for competitive binding ability.\n(§2) One day before transfection, the COS-7 cells were seeded in 75 cm^2 culture flasks (3 million cells/flask) in DMEM, containing 3.9 g/L NaHCO3 and supplemented with 10% FBS, 1% L-glutamine, 180 units/mL penicillin and 45 µg/mL streptomycin. After an overnight culture at 37 °C, 10% CO2 and 95% air humidity, the cells were transiently transfected with different GLP-2R constructs or pcDNA3.1 vector as previously described.[52] Following 24-h incubation, the cells were transferred to Costa® microtiter plates (150,000 cells/well, PerkinElmer) to achieve a 5%–10% specific binding. […] The cells were then washed twice in binding buffer (4 °C), lysed and counted for radioactivity using a Wallac Gamma Counter (PerkinElmer)."}, "[2]": {"biological_target": "T2, GLP-2R Y252^ECL1A (Homo sapiens, UniProt O95838, Y252A)", "T2 sequence (O95838 1-553 Y252A)": "T1 sequence (O95838 1-553 R242A) with A242R, Y252A", "assay": "radioligand competition binding, Y252^ECL1A", "conditions": "COS-7, Y252^ECL1A; [^125I]GLP-2(1–33, M10Y) 10–15 pM, 4 h, 4 °C; mean ± SEM, n ≥ 3 in duplicate", "method": "as §1, §2"}, "[3]": {"biological_target": "T3, GLP-2R D244^ECL1A (Homo sapiens, UniProt O95838, D244A)", "T3 sequence (O95838 1-553 D244A)": "T1 sequence (O95838 1-553 R242A) with A242R, D244A", "assay": "radioligand competition binding, D244^ECL1A", "conditions": "COS-7, D244^ECL1A; [^125I]GLP-2(1–33, M10Y) 10–15 pM, 4 h, 4 °C; mean ± SEM, n ≥ 3 in duplicate", "method": "as §1, §2"}},
  "note": "Positions count from the first letter of the chain named.",
  "data": [
    {"smiles": "CC[C@H](C)[C@H](NC(=O)[C@H](Cc1ccccc1)NC(=O)[C@H](CC(=O)O)NC(=O)[C@H](CCCNC(=N)N)NC(=O)[C@H](C)NC(=O)[C@H](C)NC(=O)[C@H](CC(C)C)NC(=O)[C@H](CC(N)=O)NC(=O)[C@H](CC(=O)O)NC(=O)[C@H](CC(C)C)NC(=O)[C@@H](NC(=O)[C@@H](NC(=O)[C@H](CC(N)=O)NC(=O)[C@H](CCSC)NC(=O)[C@H](CCC(=O)O)NC(=O)[C@H](CC(=O)O)NC(=O)[C@H](CO)NC(=O)[C@H](Cc1ccccc1)NC(=O)[C@H](CO)NC(=O)CNC(=O)[C@H](CC(=O)O)NC(=O)[C@H](C)NC(=O)[C@@H](N)Cc1c[nH]cn1)[C@@H](C)O)[C@@H](C)CC)C(=O)N[C@@H](CC(N)=O)C(=O)N[C@@H](Cc1c[nH]c2ccccc12)C(=O)N[C@@H](CC(C)C)C(=O)N[C@H](C(=O)N[C@@H](CCC(N)=O)C(=O)N[C@H](C(=O)N[C@@H](CCCCN)C(=O)N[C@H](C(=O)N[C@H](C(=O)N[C@@H](CC(=O)O)C(=O)O)[C@@H](C)O)[C@@H](C)CC)[C@@H](C)O)[C@@H](C)CC", "note": "[Human GLP-2 (1–33)]", "values": [
      {"measurement": "% Binding of WT", "setting": "[1]", "result": "4.2 ± 0.6", "unit": "%"},
      {"measurement": "% Binding of WT", "setting": "[2]", "result": "8.3 ± 1.8", "unit": "%"},
      {"measurement": "% Binding of WT", "setting": "[3]", "result": "69.1 ± 4.9", "unit": "%"}
    ]},
    {"smiles": "CC[C@H](C)[C@H](NC(=O)[C@H](Cc1ccccc1)NC(=O)[C@H](CC(=O)O)NC(=O)[C@H](CCCNC(=N)N)NC(=O)[C@H](C)NC(=O)[C@H](C)NC(=O)[C@H](CC(C)C)NC(=O)[C@H](CC(N)=O)NC(=O)[C@H](CC(=O)O)NC(=O)[C@H](CC(C)C)NC(=O)[C@@H](NC(=O)[C@@H](NC(=O)[C@H](CC(N)=O)NC(=O)[C@H](CCSC)NC(=O)[C@H](CCC(=O)O)NC(=O)[C@H](CC(=O)O)NC(=O)[C@H](CO)NC(=O)[C@H](Cc1ccccc1)NC(=O)[C@H](CO)NC(=O)CNC(=O)[C@H](CC(=O)O)NC(=O)CNC(=O)[C@@H](N)Cc1c[nH]cn1)[C@@H](C)O)[C@@H](C)CC)C(=O)N[C@@H](CC(N)=O)C(=O)N[C@@H](Cc1c[nH]c2ccccc12)C(=O)N[C@@H](CC(C)C)C(=O)N[C@H](C(=O)N[C@@H](CCC(N)=O)C(=O)N[C@H](C(=O)N[C@@H](CCCCN)C(=O)N[C@H](C(=O)N[C@H](C(=O)N[C@@H](CC(=O)O)C(=O)O)[C@@H](C)O)[C@@H](C)CC)[C@@H](C)O)[C@@H](C)CC", "note": "[Teduglutide]", "values": [
      {"measurement": "% Binding of WT", "setting": "[1]", "result": "5.1 ± 1.5", "unit": "%"},
      {"measurement": "% Binding of WT", "setting": "[2]", "result": "6.3 ± 1.7", "unit": "%"},
      {"measurement": "% Binding of WT", "setting": "[3]", "result": "77.5 ± 5.7", "unit": "%"}
    ]}
  ]
}
